Measurements as given in US20120004233A1, “TRICYCLIC COMPOUNDS AS ANTAGONISTS OF PROSTAGLANDIN D2 RECEPTORS” (AMIRA PHARMACEUTICALS, INC, priority 2009, published 2012).
Like-named read-outs stand apart in the source and are kept apart here.

What was measured:
human DP2 receptor = target: T1, human DP2 receptor (Homo sapiens, UniProt Q9Y5Y4); test: DP2/CRTH2 radioligand binding assay using [3H]PGD2; conditions: membranes of HEK293 cells expressing recombinant human DP2
T1 construct: expressed in transfected cells
T1 sequence (Q9Y5Y4 1-395): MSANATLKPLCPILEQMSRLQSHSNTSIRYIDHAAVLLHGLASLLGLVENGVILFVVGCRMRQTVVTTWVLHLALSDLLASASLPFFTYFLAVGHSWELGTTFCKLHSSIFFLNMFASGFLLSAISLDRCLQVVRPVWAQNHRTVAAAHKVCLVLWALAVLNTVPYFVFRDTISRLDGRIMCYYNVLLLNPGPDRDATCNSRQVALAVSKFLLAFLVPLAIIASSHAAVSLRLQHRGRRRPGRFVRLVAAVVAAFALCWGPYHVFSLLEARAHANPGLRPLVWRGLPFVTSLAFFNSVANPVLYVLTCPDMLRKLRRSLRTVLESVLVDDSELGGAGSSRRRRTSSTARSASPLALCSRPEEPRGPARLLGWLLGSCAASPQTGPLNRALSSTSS
Experimental: The ability of a compound to bind to the human DP2 receptor is assessed via a radioligand binding assay using [^3H]PGD2. HEK293 cells stably expressing recombinant human DP2 are resuspended in 10 mM Hepes, 7.4 containing 1 mM DTT, lysed and centrifuged at 75,000×g to pellet the membranes. The membranes are resuspended in 10 mM Hepes, 7.4 containing 1 mM DTT and 10% glycerol to approximately 5 mg protein/ml. Membranes (2-10 μg protein/well) are incubated in 96-well plates with 1 nM [^3H]PGD2 and test compound in Assay Buffer (50 mM Hepes, 10 mM MnCl2, 1 mM EDTA, plus or minus 0.2% human serum albumin, pH 7.4) for 60 minutes at room temperature. The reactions are terminated by rapid filtration through Whatman GF/C glass fibre filter plates. The filter plates were pre-soaked in 0.33% polythylenimine for 30 minutes at room temperature then washed in Wash Buffer (50 mM Hepes, 0.5 M NaCl pH 7.4) prior to harvesting. After harvesting, the filter plates are washed 3 times with 1 ml cold Wash Buffer then dried. Scintillant is then added to the plates and the radioactivity retained on the filters is determined on a Packard TopCount (Perkin Elmer). Specific binding is determined as total radioactive binding minus non-specific binding in the presence of 10 μM PGD2. IC50s were determined using GraphPad prism analysis of drug titration curves.

human DP1 receptor = target: T2, human DP1 receptor (Homo sapiens, UniProt Q13258); test: DP1 radioligand membrane binding assay using [3H]BWA868C; conditions: human platelet membranes; read-out: hDP1
T2 construct: tissue Biological Specialty Corporation; host or cells: human platelets, membrane preparation
T2 sequence (Q13258 1-359): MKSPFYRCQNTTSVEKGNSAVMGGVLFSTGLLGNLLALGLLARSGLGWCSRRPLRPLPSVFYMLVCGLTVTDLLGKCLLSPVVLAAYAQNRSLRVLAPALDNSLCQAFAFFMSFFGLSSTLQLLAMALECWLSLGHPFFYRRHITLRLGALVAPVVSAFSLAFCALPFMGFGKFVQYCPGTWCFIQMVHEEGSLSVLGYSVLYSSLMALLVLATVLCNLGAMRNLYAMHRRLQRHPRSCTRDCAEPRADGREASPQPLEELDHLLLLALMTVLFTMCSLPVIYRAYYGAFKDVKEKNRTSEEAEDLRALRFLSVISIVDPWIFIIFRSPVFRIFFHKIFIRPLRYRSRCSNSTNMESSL
Experimental: The ability of a compound to bind to the human DP1 receptor is evaluated via a radioligand membrane binding assay using the DP1 selective synthetic ligand [^3H]BWA868C. Packed human platelets (Biological Specialty Corporation), are resuspended in 6 volumes of Hepes/HBSS buffer (10 mM Hepes, 1 mM DTT in Hanks Balanced Salt Solution (HBSS)), lysed and centrifuged at 75,000×g to pellet the membranes. Membranes are resuspended in Hepes/HBSS buffer to approximately 12 mg protein/ml. Membranes (20 μg protein/well) are incubated in 96-well plates with 2 nM [^3H]BWA868C and test compound in Assay Buffer (50 mM Hepes, 10 mM MnCl2, 1 mM EDTA, plus or minus 0.2% human serum albumin, pH 7.4) for 60 minutes at room temperature. The reactions are terminated by rapid filtration through Whatman GF/C glass fibre filter plates. The filter plates are pre-soaked in 0.33% polethylenimine for 30 minutes at room temperature then washed in Wash Buffer (50 mM Hepes, 0.5 M NaCl pH 7.4) prior to harvesting. […] Scintillant is then added to the plates and the radioactivity retained on the filters is determined on a Packard TopCount (Perkin Elmer). Specific binding is determined as total radioactive binding minus non-specific binding in the presence of 10 μM BW A868C. IC50 values are determined using GraphPad prism analysis of drug titration curves.

[1] = plus 0.2% human serum albumin, read-out: hDP2 μM (+HSA)
[2] = without human serum albumin, read-out: hDP2

Row | IC50 (human DP2 receptor; [1]) | IC50 (human DP2 receptor; [2]) | IC50 (human DP1 receptor) | SMILES
1 | < 300 nM | < 300 nM | > 1000 nM | CN(C1CCc2c(c3ccccn3c2CC(=O)O)C1)S(=O)(=O)c1ccc(F)cc1 (stereo not drawn) [Compound 2-1, {9-[(4-Fluoro-benzenesulfonyl)-methyl-amino]-7,8,9,10-tetrahydro-pyrido[2,1-a]isoindol-6-yl}-acetic acid]
2 | < 300 nM | < 300 nM | > 1000 nM | CN(C1CCc2c(CC(=O)O)c3ccccn3c2C1)S(=O)(=O)c1ccc(F)cc1 (stereo not drawn) [Compound 1-1, {3-[(4-Fluoro-benzenesulfonyl)-methyl-amino]-1,2,3,4-tetrahydro-pyrido[1,2-a]indol-10-yl}-acetic acid]
